Results as given in patent US20110144578A1, “HYDROPHOBIC THERAPUEUTIC AGENT AND SOLID EMULSIFIER COATING FOR DRUG COATED BALLOON” (priority 2009, published 2011).
≈ marks a conversion by molar mass, not a printed value.

Experiments:
physchem = conditions: water
From the text: Using the Stokes-Einstein equation as a simple model, diffusion coefficients are approximately proportional to the molecular weight of a species raised to the −⅓ power. Thus, individual molecules or micelles, which are low in molecular weight, tend to diffuse much faster than microspheres or nanoparticles, which are much higher in molecular weight.

[1] = Solubility enhancement screening in 5% (w/w) excipient solutions in phosphate buffered saline, HPLC of supernatant; format: physicochemical; conditions: aqueous buffer, thermodynamic from solid, 37° C., n = 3, read-out: Zotarolimus Solubility
Method: Emulsifier candidates can be screened by measuring the degree to which they can enhance the solubility of the therapeutic agent. One way to accomplish this is to make 5% (w/w) solutions of the emulsifiers of interest in a phosphate buffered saline solution. An excess amount of drug is added to the solution and incubated with stirring at 37° C. After centrifugation to precipitate all solids, the supernatant is assayed by HPLC for the drug concentration.

solubility (physchem): 0.5 µg/mL (≈ 0.517 µM)
solubility [1]: 0.53 µg/mL
Compound: CO[C@H]1C[C@@H]2CC[C@@H](C)[C@@](O)(O2)C(=O)C(=O)N2CCCC[C@H]2C(=O)O[C@H]([C@H](C)C[C@@H]2CC[C@H](n3cnnn3)[C@H](OC)C2)CC(=O)[C@H](C)/C=C(\C)[C@@H](O)[C@@H](OC)C(=O)[C@H](C)C[C@H](C)/C=C/C=C/C=C/1C [Zotarolimus, zotarolimus]
